# From patent US20080206311A1, “Sucrase Activity Inhibitor, Glucoamylase Activity Inhibitor and Food and Feed Containing the Same” (MITSUI SUGAR CO., LTD., priority 2005, published 2008)
# Tests used:
# lactase = target: T1, lactase (Rattus norvegicus, UniProt Q02401); experiment: Lactase activity inhibition with rat small-intestinal enzyme liquid, substrate lactose; type: biochemical; conditions: 5% lactose + 5% test sample
# T1 construct: tissue Sigma Corporation; host or cells: rat small intestine (acetone powder), buffer extract, unpurified
# T1 sequence (Q02401 868-1928): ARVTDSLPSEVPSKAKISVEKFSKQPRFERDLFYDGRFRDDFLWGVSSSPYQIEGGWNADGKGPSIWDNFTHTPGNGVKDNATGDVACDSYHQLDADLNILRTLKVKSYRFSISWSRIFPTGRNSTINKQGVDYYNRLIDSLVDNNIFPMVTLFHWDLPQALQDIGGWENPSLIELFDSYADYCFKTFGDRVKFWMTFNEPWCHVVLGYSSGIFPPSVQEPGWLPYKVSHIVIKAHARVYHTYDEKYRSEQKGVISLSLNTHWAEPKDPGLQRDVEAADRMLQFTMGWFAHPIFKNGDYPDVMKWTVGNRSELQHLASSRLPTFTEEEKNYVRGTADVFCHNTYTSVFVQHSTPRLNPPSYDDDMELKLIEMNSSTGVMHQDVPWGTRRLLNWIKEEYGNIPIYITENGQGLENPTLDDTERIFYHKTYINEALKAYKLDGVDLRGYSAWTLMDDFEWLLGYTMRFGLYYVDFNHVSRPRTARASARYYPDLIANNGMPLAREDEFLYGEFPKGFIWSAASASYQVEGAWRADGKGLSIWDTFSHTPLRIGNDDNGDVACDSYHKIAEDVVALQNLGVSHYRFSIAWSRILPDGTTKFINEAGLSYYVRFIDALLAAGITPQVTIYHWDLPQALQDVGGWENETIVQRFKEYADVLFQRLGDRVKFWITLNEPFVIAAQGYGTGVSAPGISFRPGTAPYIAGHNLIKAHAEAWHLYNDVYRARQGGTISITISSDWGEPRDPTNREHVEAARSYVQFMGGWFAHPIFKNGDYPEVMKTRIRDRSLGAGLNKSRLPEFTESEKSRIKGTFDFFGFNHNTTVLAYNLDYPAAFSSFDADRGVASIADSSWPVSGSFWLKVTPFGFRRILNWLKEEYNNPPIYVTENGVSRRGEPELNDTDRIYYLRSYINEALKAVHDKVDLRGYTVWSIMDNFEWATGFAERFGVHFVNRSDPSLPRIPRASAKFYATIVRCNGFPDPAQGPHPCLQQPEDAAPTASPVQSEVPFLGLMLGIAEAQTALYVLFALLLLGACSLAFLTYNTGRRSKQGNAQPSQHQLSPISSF
# Procedure: Two grams of rat small-intestinal acetone powder (ex Sigma Corporation) were dissolved in 20 ml of 0.1 M phosphate buffer (pH 6.8), left standing one day at 5° C., and subsequently subjected to centrifugal separation (8000 rpm×15 min.). The supernatant was filtered through a 0.8 μm membrane filter to obtain a small-intestinal enzyme liquid. This liquid contained a mixture of enzymes present in small intestine, such as sucrose, glucoamylase, maltase, and isomaltase.
# Each 0.25 ml of the small-intestinal enzyme liquid was added to each 5 ml of Solutions 1 through 5 and placed in a water bath at 37° C. to allow them to react for 60 min. while shaken at 60 strokes/min. After the reaction, they were heated in a boiling water bath for 3 min. for inactivation of the enzymes.
# The glucose concentration in each solution after the reaction was measured using the F-kit Glucose (ex Roche). A liberated glucose concentration (g/l) was calculated by subtracting the blank value (0.1 M phosphate buffer alone) and the concentration of glucose originally contained in the test sample from each glucose concentration measured.
# Next, each of the liberated glucose concentration was input in the following equation to obtain decomposition inhibition ratio for maltase and sucrose. In the present tests, the substrates and the inhibitors were decomposed by enzymes present in the small-intestinal enzyme liquid. However, the enzymes decomposing the substrates are different from the enzymes decomposing the inhibitors. The decomposition inhibition ratio was determined as a measure for the inhibitory effect. When the inhibitor was added, the glucose concentration was lower than that seen when the substrate alone was reacted. A higher decomposition inhibition ratio means a stronger inhibitory effect.
# Decomposition inhibition ratio,%={(A+B)−(AB)}+(A+B)×100 [Equation 1]
# wherein (A+B) indicates a sum of a liberated glucose concentration in the control solution containing the test sample alone after the reaction (A) and a liberated glucose concentration in the control solution containing the substrate alone after the reaction (B); and (AB) indicates a liberated glucose concentration in the test solution containing the test sample (A) and the substrate (B), after the reaction.
# The procedures in Example 1 were repeated with the exception that palatinit, palatinose or isomaltose was used as a test sample and lactose was used as a substrate. The test samples and the substrate were dissolved in 0.1 M phosphate buffer (pH 6.8) to attain the concentration shown in Table 5 to thereby prepare three test solutions. Besides, each of the test samples or the substrate was dissolved in 0.1 M phosphate buffer (pH 6.8) to attain the concentration shown in Table 5 to thereby prepare control solutions. Each 5 ml of the aforementioned test solutions and the control solutions was subjected to the enzymatic reaction according to the same procedures as in Example 1. The glucose concentration, the fructose concentration and the galactose concentration were measured. The galactose concentration was measured using F-kit Galactose (ex Roche). The liberated galactose concentration, g/l, was calculated by subtracting the blank value (0.1 M phosphate buffer alone) from the measured galactose concentration.
# sucrase = target: T2, sucrase (Rattus norvegicus, UniProt P23739); experiment: Ratio of inhibitor to the substrate sucrose (Examples 8, 9); type: biochemical; conditions: 10 min
# T2 construct: This liquid contained a mixture of enzymes present in small intestine, such as sucrose, glucoamylase, maltase, and isomaltase; tissue Sigma Corporation; host or cells: rat small intestine (acetone powder), buffer extract, unpurified
# T2 sequence (P23739 whole entry): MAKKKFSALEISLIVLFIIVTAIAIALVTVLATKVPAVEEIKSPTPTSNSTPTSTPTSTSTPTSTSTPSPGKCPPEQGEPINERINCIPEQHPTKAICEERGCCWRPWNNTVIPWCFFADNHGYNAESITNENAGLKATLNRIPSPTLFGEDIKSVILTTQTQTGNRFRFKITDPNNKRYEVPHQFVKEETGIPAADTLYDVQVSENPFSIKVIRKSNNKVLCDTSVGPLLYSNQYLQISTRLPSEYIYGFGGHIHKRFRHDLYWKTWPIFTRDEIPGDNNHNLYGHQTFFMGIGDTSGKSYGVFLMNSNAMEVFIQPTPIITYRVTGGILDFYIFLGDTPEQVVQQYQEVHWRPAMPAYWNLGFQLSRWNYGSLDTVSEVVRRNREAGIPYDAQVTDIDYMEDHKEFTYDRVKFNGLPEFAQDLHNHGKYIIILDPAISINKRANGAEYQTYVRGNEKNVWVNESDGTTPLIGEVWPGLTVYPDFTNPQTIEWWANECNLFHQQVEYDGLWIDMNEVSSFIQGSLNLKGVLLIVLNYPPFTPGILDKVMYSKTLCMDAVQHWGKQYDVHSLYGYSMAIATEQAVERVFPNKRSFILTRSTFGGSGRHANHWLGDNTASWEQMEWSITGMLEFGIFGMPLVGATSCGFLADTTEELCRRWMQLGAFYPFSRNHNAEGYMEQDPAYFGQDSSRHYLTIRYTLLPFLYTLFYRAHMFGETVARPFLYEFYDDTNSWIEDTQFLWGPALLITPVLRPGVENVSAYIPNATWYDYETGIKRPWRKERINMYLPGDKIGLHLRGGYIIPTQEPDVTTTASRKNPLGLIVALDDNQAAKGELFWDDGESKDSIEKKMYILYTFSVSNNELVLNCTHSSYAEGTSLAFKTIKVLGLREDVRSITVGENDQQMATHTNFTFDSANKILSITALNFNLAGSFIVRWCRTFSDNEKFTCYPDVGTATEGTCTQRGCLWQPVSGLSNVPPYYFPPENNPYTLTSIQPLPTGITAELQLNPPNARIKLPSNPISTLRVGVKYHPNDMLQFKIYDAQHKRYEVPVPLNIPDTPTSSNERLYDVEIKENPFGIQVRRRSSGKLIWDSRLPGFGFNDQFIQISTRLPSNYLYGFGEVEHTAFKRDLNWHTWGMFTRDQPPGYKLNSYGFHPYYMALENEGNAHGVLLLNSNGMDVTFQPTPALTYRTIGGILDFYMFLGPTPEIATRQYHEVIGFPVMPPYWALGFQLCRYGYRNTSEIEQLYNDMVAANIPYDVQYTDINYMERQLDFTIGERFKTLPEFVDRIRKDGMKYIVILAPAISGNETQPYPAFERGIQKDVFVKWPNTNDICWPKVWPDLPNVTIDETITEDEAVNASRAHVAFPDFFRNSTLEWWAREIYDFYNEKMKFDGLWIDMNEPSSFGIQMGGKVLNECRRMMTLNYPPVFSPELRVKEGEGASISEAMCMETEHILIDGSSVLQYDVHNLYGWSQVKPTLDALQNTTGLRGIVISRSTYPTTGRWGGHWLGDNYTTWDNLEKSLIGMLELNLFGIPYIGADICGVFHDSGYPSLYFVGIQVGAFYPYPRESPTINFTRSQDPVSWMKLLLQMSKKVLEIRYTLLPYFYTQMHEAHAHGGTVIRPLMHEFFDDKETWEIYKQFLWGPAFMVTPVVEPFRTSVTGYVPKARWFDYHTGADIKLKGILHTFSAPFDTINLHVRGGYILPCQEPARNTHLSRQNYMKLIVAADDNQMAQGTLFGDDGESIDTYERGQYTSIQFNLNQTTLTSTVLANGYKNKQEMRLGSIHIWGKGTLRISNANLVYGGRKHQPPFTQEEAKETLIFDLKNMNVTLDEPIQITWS
# Procedure: Twenty samples with the concentrations shown in Table 11, Samples A-1 through A-20, were dissolved in 0.1 M phosphate buffer (pH 6.8) to a final volume of 2.5 ml.
# This was made in the same way as in the preparation of a small intestinal enzyme solution in Example 1.
# Each 0.15 ml of a small intestinal enzyme solution was added to each 2.5 ml of the aforementioned 20 samples, each mixture, and placed in a water bath at 37° C. to allow reaction for 10 minutes while shaken at 60 strokes/min. At the end of the reaction, the mixture was heated in a boiling water bath for 3 min. for inactivation of the enzyme. As a blank, 0.15 ml of the intestinal enzyme solution was added to 0.1 M phosphate buffer (pH 6.8) and the enzyme was inactivated immediately.
# After the reaction, the glucose concentration in each solution was measured using the F-kit Glucose (ex Roche) as in Example 1.
# The procedures in Example 8 were repeated with the exception that twenty samples with the concentrations shown in Table 12, Samples B-1 through B-20, were dissolved in 0.1 M phosphate buffer (pH 6.8) to a final volume of 2.5 ml.
smiles,measurement,setting,value
"OC[C@H]1O[C@H](OC[C@H]2OC(O)(CO)[C@@H](O)[C@@H]2O)[C@H](O)[C@@H](O)[C@@H]1O (stereo partly shown) [palatinose, isomaltulose]","Decomposition inhibition ratio, %, against lactase",lactase,3%
same,Lactase activity inhibitory effect (in words),lactase,no lactose inhibitory effect was appreciable
same,Liberated fructose concentration,lactase,0.23 g/L
same,Liberated galactose concentration,lactase,0.12 g/L
same,Liberated glucose concentration,lactase,0.33 g/L
same,Inhibitory effect on the decomposition of sucrose (FIG. 5),"sucrase; sucrose concentration 0.5%, palatinose 5, 10, 50% relative to sucrose",not clear
same,Ratio of palatinose added relative to the weight of sucrose at which decomposition of sucrose was suppressed (FIG. 4),"sucrase; sucrose concentrations 3%, 5%, 10% and 15%",≥ 10%
